In test [1] the target is recombinant von Willebrand's Factor (rvWF) (Homo sapiens, UniProt P04275). In words: SPR measurement of binding between ligand-introduced chip and rvWF. The conditions noted are these: for Kd: read-out: Dissociation constant KD. The text has this:
That is, by the procedure described below, a ligand (Compound 14) was immobilized on a surface of a glass substrate with a thin gold film deposited thereon, and the binding behavior of Compound 14 with a recombinant von Willebrand's Factor (hereinafter abbreviated to rvWF), which is a heparin binding protein, was observed.
First, a sensor chip (manufactured by Japan Laser Electronics Co., Ltd.), prepared by depositing a gold film of 50 nm thick on a glass substrate of 13 mm×20 mm×0.7 mm, was placed in a UV ozone washer (product name: NL-UV253, Japan Laser Electronics Co., Ltd.), and was exposed to ultraviolet rays for 20 minutes so as to wash the gold surface of the sensor chip with ozone. Subsequently, the sensor chip was mounted on a Teflon™ cell holder in a cell. The cell, to which 50 μL of a methanol solution containing 0.1 mM of Compound 14 was added, was sealed and then gently shaken overnight at room temperature with a Bio Dancer (product name, New Brunswick Scientific Co., Ltd.). Thereafter, the cell was washed six times with 100 μL of methanol, and the sensor chip was removed from the Teflon™ cell holder. The removed sensor chip was then immersed in a Petri dish full of methanol and washed twice by gently shaking the Petri dish. Thereafter, the sensor chip was washed with water and methanol in this order in the same manner as described above, so as to obtain a ligand-introduced chip (ligand carrier). The ligand carrier was air-dried and then mounted on a sensor chip cartridge (glass prism) of a surface plasmon resonance apparatus SPR670 (product name, Japan Laser Electronics Co., Ltd.).
Except that an rvWF solution was used instead of the BSA solution (5-2) injected onto the ligand-introduced chip (obtained in 5-1), the same procedure as in (5-2) was carried out to inject the rvWF solution onto the surface of the ligand-introduced chip. It is to be noted that rvWF was dissolved in the running buffer so as to prepare an rvWF solution with a concentration of 125 nM to 1600 nM.
The rvWF solution was injected onto the surface of the ligand-introduced chip at varying concentrations, and a response (RU; response unit) based on bonding between Compound 14 and rvWF was measured as a function of injection time (sec) of the rvWF solution using the surface plasmon resonance apparatus. […]
In addition, a dissociation constant (KD), a binding rate constant (ka), and a dissociation rate constant (kd) were calculated, using software attached to the surface plasmon resonance apparatus (SPR670), based on a result (FIG. 1) yielded by observing the binding behavior of Compound 14 (ligand) with rvWF.
Then, except that the Compound 25 was used instead of the Compound 14, the procedure in (5-1) of Example 5 was followed to obtain a ligand-introduced chip. […] Thereafter, according the procedure in (5-3) of Example 5, the rvWF solution was injected onto the surface of the ligand-introduced chip, and changes in resonance angle as a function of injection time of the rvWF solution was measured using the surface plasmon resonance apparatus, so as to examine the binding behavior of Compound 25 with rvWF.
In addition, a dissociation constant (KD), a binding rate constant (ka), and a dissociation rate constant (kd) were calculated, based on FIG. 2, according to the procedure in (5-3) of Example 5.

For test [2], the target named is bovine serum albumin (BSA) (Bos taurus, UniProt P02769). In words: SPR examination of nonspecific (hydrophobic) interaction between ligand-introduced chip and protein. It counts as binding. The conditions noted are these: BSA 1 mg/mL in PBS pH 7.4, 60 μL at 15 μL/min, 25° C.
The mark [3] stands for this setting: ligand immobilized on gold sensor chip, rvWF 125 nM to 1600 nM in PBS pH 7.4, 25° C., calculated with SPR670 software.

recombinant von Willebrand's Factor (rvWF), sequence (P04275 23-2813): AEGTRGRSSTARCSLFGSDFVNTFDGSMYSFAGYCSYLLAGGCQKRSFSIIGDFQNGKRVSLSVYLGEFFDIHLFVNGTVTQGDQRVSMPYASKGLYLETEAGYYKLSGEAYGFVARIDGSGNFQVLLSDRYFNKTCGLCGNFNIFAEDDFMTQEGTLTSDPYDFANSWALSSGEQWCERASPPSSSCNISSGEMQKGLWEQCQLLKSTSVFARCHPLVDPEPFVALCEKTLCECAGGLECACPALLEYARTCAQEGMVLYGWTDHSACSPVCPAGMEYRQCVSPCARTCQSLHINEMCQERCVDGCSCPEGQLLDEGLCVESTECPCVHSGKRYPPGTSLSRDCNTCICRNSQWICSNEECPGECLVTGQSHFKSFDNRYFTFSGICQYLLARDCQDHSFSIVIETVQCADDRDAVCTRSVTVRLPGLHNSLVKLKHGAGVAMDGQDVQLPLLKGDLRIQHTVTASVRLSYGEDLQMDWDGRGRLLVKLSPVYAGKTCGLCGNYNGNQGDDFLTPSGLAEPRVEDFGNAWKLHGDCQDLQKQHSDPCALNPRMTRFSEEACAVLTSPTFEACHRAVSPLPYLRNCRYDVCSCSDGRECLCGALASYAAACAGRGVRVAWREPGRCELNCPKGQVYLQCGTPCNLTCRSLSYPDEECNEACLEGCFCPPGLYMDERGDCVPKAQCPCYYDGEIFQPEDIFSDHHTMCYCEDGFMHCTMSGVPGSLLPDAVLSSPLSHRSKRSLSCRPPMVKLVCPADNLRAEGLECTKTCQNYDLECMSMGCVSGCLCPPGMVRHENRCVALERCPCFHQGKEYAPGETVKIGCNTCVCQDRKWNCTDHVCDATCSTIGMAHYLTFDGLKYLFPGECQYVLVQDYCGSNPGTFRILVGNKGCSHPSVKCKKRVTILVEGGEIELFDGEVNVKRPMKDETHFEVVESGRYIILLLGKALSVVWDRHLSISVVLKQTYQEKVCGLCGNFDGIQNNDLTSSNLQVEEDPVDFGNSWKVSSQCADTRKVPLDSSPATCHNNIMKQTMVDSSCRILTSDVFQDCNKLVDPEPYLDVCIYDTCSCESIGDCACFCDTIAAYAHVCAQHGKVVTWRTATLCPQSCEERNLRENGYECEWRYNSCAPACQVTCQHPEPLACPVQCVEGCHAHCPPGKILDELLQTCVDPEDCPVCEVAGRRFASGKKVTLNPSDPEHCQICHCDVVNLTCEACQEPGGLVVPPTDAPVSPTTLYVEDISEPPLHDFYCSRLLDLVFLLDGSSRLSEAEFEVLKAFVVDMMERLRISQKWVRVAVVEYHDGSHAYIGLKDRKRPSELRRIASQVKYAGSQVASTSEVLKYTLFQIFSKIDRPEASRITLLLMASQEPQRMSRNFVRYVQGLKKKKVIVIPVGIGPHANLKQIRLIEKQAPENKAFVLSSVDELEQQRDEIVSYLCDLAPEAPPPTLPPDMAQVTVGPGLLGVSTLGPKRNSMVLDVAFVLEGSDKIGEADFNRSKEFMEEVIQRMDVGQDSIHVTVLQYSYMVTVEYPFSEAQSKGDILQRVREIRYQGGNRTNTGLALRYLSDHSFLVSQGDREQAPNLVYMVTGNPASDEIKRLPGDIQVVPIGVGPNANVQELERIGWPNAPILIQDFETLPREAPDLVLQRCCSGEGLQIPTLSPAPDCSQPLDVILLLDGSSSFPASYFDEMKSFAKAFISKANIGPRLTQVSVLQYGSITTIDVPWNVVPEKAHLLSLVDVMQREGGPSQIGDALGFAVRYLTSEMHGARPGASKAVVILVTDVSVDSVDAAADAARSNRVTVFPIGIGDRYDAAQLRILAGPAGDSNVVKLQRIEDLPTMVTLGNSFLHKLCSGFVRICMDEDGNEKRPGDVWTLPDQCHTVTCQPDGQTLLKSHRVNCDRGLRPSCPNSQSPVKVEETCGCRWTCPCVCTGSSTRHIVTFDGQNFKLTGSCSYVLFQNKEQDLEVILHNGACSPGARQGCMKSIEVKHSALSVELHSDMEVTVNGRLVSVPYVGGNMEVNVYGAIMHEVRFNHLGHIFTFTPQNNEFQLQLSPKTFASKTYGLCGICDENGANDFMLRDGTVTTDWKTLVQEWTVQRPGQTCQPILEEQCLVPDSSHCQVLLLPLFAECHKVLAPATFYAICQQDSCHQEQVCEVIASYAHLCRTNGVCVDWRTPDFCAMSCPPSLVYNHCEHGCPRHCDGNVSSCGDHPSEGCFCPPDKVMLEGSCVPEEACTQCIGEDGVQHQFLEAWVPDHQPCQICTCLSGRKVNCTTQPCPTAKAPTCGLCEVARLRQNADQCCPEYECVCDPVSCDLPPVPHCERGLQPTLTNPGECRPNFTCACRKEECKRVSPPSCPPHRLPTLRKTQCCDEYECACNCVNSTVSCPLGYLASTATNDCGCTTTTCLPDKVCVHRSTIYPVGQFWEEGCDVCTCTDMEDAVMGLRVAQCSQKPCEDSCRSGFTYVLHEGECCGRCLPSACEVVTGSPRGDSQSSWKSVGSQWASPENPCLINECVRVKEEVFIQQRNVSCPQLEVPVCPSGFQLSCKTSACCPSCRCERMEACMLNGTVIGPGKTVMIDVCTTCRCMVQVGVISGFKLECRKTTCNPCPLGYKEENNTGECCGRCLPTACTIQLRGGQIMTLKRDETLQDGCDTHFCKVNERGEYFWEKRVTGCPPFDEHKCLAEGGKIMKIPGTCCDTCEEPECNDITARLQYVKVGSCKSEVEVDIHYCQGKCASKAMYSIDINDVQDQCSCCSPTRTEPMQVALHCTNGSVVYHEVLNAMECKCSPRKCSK
bovine serum albumin (BSA), sequence (P02769 25-607): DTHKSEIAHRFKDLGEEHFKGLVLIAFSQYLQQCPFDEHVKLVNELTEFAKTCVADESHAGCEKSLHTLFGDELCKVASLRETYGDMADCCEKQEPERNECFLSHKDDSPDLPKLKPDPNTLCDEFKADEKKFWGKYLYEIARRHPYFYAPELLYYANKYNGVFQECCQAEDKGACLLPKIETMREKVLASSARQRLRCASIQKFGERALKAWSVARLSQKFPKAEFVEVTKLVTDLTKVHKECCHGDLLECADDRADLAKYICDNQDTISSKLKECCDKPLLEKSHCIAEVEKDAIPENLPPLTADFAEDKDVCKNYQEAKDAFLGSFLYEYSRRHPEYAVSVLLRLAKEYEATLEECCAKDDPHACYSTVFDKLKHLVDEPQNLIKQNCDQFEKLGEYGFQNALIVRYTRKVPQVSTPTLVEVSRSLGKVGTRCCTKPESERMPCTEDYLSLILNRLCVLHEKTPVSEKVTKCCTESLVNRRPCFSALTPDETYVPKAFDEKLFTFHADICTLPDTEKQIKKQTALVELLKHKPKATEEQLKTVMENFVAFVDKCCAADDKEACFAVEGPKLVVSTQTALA

On to `COC1C(COS(=O)(=O)O)OC(OC2C(C(=O)O)OC(OCC(O)C(O)C(O)C(O)CNc3cccc(NC(=O)CCC(CCC(=O)Nc4cccc(NCC(O)C(O)C(O)C(O)COC5OC(C(=O)O)C(OC6OC(COS(=O)(=O)O)C(OC)C(O)C6NS(=O)(=O)O)C(O)C5OS(=O)(=O)O)c4)(CCC(=O)Nc4cccc(NCC(O)C(O)C(O)C(O)COC5OC(C(=O)O)C(OC6OC(COS(=O)(=O)O)C(OC)C(O)C6NS(=O)(=O)O)C(O)C5OS(=O)(=O)O)c4)NC(=O)CNC(=O)CCCCC4CCSS4)c3)C(OS(=O)(=O)O)C2O)C(NS(=O)(=O)O)C1O` (stereo not shown) [Compound 14], for which the “Affinity for rvWF compared with ligand-introduced chip using Compound 25” value in test [1] (comparison from Table 1) was “higher affinity for rvWF”. For the same molecule, the dissociation constant (Kd) (commonly the concentration at which binding is half-saturated) in test [1] (setting [3]) was 1200 nM. Besides, the “Nonspecific interaction based on hydrophobic interaction (resonant angle change)” value in test [2] is on record as “almost no resonant angle change”.
`COC1C(COS(=O)(=O)O)OC(OC2C(C(=O)O)OC(OCC(O)C(O)C(O)C(O)CNc3cccc(NC(=O)CCCCC4CCSS4)c3)C(OS(=O)(=O)O)C2O)C(NS(=O)(=O)O)C1O` (stereo not shown) [Compound 25]: the kon in test [1] (ligand immobilized on gold sensor chip, rvWF 125 nM to 1600 nM in PBS pH 7.4, 25° C., calculated with SPR670 software, read-out: Binding rate constant ka) was 8380 M⁻¹ s⁻¹. The equilibrium dissociation constant (Kd) in test [1] (setting [3]) was 2600 nM. The koff in test [1] (ligand immobilized on gold sensor chip, rvWF 125 nM to 1600 nM in PBS pH 7.4, 25° C., calculated with SPR670 software, read-out: Dissociation rate constant kd) was 0.0219 s⁻¹. Besides, the “Nonspecific interaction based on hydrophobic interaction (resonant angle change)” value in test [2] is listed as “no nonspecific interaction”.

The record behind these values is US7320867B2, “Linker compound, ligand, and producing method thereof” (Japan Science and Technology Agency, priority 2000, dated 2008).
